Assays:
p-AXL = biological target: T1, p-AXL (Homo sapiens, UniProt P30530); test: Axl phosphorylation inhibition ELISA in HEK293T cells transfected with NanoLuc-tagged AXL; assay type: cell-based; settings: 1 h compound incubation, media (OptiMEM)
T1 construct: expressed in transfected cells; host or cells: HEK293T
T1 sequence (P30530 26-894): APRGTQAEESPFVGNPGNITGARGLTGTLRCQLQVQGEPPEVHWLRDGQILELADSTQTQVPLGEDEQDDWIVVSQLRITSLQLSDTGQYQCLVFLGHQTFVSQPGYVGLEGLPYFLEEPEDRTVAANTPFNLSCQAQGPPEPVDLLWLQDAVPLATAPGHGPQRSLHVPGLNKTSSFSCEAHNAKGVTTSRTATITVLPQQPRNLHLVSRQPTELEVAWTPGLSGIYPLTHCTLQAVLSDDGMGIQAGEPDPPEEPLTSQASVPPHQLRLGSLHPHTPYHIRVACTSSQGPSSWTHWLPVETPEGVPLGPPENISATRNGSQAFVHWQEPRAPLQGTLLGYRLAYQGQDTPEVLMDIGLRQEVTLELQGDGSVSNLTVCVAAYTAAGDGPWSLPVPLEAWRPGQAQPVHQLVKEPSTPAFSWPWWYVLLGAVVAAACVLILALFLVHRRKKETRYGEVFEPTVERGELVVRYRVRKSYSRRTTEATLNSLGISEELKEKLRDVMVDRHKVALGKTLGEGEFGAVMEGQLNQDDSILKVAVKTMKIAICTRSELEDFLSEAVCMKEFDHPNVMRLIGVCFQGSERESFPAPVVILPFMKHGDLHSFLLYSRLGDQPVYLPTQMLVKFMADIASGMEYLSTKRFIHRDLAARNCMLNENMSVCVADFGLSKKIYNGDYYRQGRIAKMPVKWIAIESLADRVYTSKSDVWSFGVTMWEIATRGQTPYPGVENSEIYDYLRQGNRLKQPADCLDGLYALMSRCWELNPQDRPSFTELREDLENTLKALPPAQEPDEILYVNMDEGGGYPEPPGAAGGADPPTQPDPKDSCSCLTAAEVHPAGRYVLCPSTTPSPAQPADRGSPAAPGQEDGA
Summary of the method: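 HEK293T cells transiently transfected one day earlier with NanoLuc-tagged AXL were exposed to 22-point 2-fold compound dilutions for 1 h at 37° C (70,000 cells/well), then lysed. Lysates captured on anti-phospho-tyrosine coated plates for 2 h; bound p-AXL read by NanoLuc luminescence; IC50 from 4-parameter logistic fit.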

Axl = biological target: T2, Axl (Homo sapiens, UniProt P30530); test: Biochemical potency, HTRF KinEASE-TK kinase assay; parameters: purchased Invitrogen; settings: 5 nM AXL, 700 μM ATP
T2 sequence (P30530 26-894): T1 sequence (P30530 26-894)
Summary of the method: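 HTRF 665/620 readout after a 2 h RT kinase reaction (final 700 μM ATP, 800 nM biotinylated TK substrate, 1% DMSO, HEPES pH 7.4 buffer) gave percent activity. Final enzyme was 5 nM for AXL, 1 nM for TYRO3 or MER, each preincubated 1 h with compound.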

| IC50 (p-AXL) [nM] | IC50 (Axl) [nM] | SMILES |
| --- | --- | --- |
| 100 to 1000 | < 100 | C[C@@H]1CCCN1[C@@]1(C)CCc2ccc(-c3cnc4[nH]nc(-c5ccc(-c6nccs6)cc5)c4c3)cc2CC1 [Example 91, 2-(4-{5-[(7S)-7-Methyl-7-[(2R)-2-methylpyrrolidin-1-yl]-6,7,8,9-tetrahydro-5H-benzo[7]annulen-2-yl]-2H-pyrazolo[3,4-b]pyridin-3-yl}phenyl)-1,3-thiazole] |
| < 100 | < 100 | CN(C)C(=O)c1ccccc1-c1ccc(-c2c[nH]c3ncc(-c4ccc5c(c4)CC[C@@H](N4C6COCC4C6)CC5)cc23)cc1 [Example 92, N,N-Dimethyl-4′-{5-[(7S)-7-{3-oxa-6-azabicyclo[3.1.1]heptan-6-yl}-6,7,8,9-tetrahydro-5H-benzo[7]annulen-2-yl]-1H-pyrrolo[2,3-b]pyridin-3-yl}-[1,1′-biphenyl]-2-carboxamide] |
| 100 to 1000 | < 100 | CS(=O)(=O)c1ccccc1-c1ccc(-c2c[nH]c3ncc(-c4ccc5c(c4)CC[C@@H](N4C6COCC4C6)CC5)cc23)cc1 [Example 93, 6-[(7S)-2-(3-{2′-Methanesulfonyl-[1,1′-biphenyl]-4-yl}-1H-pyrrolo[2,3-b]pyridin-5-yl)-6,7,8,9-tetrahydro-5H-benzo[7]annulen-7-yl]-3-oxa-6-azabicyclo[3.1.1]heptane] |

Source: patent publication US12195482B1 (Arcus Biosciences, Inc., priority 2022, dated 2025)
